Earlier results as cited in US7763563B2, “Niobium compounds and hydrates thereof, formulations containing the same, and methods of providing specifications therefor” (H. C. Starck GmbH, priority 2006, dated 2010).

Settings: prior art compounds, Limar et al.

(NH4)3[Nb(O)(C2O4)3]*x H2O
water solubility: 40 g Nb/1
